What was measured:
Experiment in all cases: relative viability (nuclei count vs DMSO), 5 days (fraction); higher = more cells survive
Afatinib + Pictilisib = compound: CN(C)C/C=C/C(=O)Nc1cc2c(Nc3ccc(F)c(Cl)c3)ncnc2cc1O[C@H]1CCOC1 [Afatinib] + CS(=O)(=O)N1CCN(Cc2cc3nc(-c4cccc5[nH]ncc45)nc(N4CCOCC4)c3s2)CC1 [Pictilisib] (partner 1 µM)
In short: (§1)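 Lung cancer cell lines were seeded in 1536-well plates and dosed by pin tool the next day, with either a single drug or a fixed anchor-drug dose combined with five library-drug doses (not always all listed) spaced in √10 steps. Five days later, one step fixed the cells and stained their nuclei (final 0.05% Triton X-100, 1% formaldehyde, 1 ug/ml Hoechst), and nuclei were counted on 4× images. Relative viability is the nuclei count in treated wells divided by the count in vehicle wells, and each value is the median of duplicate plates.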

Afatinib + Linsitinib = compound: CN(C)C/C=C/C(=O)Nc1cc2c(Nc3ccc(F)c(Cl)c3)ncnc2cc1O[C@H]1CCOC1 [Afatinib] + C[C@]1(O)C[C@@H](c2nc(-c3ccc4ccc(-c5ccccc5)nc4c3)c3c(N)nccn32)C1 [Linsitinib] (partner 1 µM)
In short: as §1

Afatinib + Alpelisib = compound: CN(C)C/C=C/C(=O)Nc1cc2c(Nc3ccc(F)c(Cl)c3)ncnc2cc1O[C@H]1CCOC1 [Afatinib] + Cc1nc(NC(=O)N2CCC[C@H]2C(N)=O)sc1-c1ccnc(C(C)(C)C(F)(F)F)c1 [Alpelisib] (partner 2 µM)
In short: as §1

Afatinib + Decitabine = compound: CN(C)C/C=C/C(=O)Nc1cc2c(Nc3ccc(F)c(Cl)c3)ncnc2cc1O[C@H]1CCOC1 [Afatinib] + Nc1ncn([C@H]2C[C@H](O)[C@@H](CO)O2)c(=O)n1 [Decitabine] (partner 2 µM)
In short: as §1

Cell Line | relative viability (Afatinib + Pictilisib; first compound 0.005 µM) | relative viability (Afatinib + Pictilisib; first compound 0.01581 µM) | relative viability (Afatinib + Pictilisib; first compound 0.05 µM) | relative viability (Afatinib + Pictilisib; first compound 0.1581 µM) | relative viability (Afatinib + Pictilisib; first compound 0.5 µM) | relative viability (Afatinib + Linsitinib; first compound 0.005 µM) | relative viability (Afatinib + Linsitinib; first compound 0.01581 µM) | relative viability (Afatinib + Linsitinib; first compound 0.05 µM) | relative viability (Afatinib + Linsitinib; first compound 0.1581 µM) | relative viability (Afatinib + Linsitinib; first compound 0.5 µM) | relative viability (Afatinib + Alpelisib; first compound 0.005 µM) | relative viability (Afatinib + Alpelisib; first compound 0.01581 µM) | relative viability (Afatinib + Alpelisib; first compound 0.05 µM) | relative viability (Afatinib + Alpelisib; first compound 0.1581 µM) | relative viability (Afatinib + Alpelisib; first compound 0.5 µM) | relative viability (Afatinib + Decitabine; first compound 0.005 µM) | relative viability (Afatinib + Decitabine; first compound 0.01581 µM) | relative viability (Afatinib + Decitabine; first compound 0.05 µM) | relative viability (Afatinib + Decitabine; first compound 0.1581 µM) | relative viability (Afatinib + Decitabine; first compound 0.5 µM)
SK-LU-1 | 0.713 | 0.537 | 0.561 | 0.564 | 0.531 | 1.39 | 1.11 | 1.2 | 1.02 | 1.01 | 1.38 | 0.918 | 1.06 | 1.1 | 0.913 | 0.641 | 0.674 | 0.661 | 0.621 | 0.619
NCI-H441 | 0.431 | 0.504 | 0.436 | 0.481 | 0.31 | 0.529 | 0.523 | 0.516 | 0.503 | 0.425 | 0.831 | 0.763 | 0.751 | 0.581 | 0.626 | 0.241 | 0.233 | 0.225 | 0.277 | 0.229
NCI-H650 | 0.889 | 0.793 | 1 | 1.09 | 0.924 | 0.872 | 0.706 | 1.03 | 0.999 | 0.697 | 1.23 | 1.11 | 1.14 | 1.25 | 1.06 | 0.321 | 0.323 | 0.334 | 0.334 | 0.308
SK-MES-1 | 0.273 | 0.238 | 0.217 | 0.213 | 0.208 | 1 | 0.975 | 0.543 | 0.406 | 0.429 | 0.823 | 0.653 | 0.396 | 0.309 | 0.32 | 0.27 | 0.322 | 0.309 | 0.312 | 0.316

From the supplement of paper PMC10307832
